The values that follow come from patent publication US7173021B2, “Synthesis of temozolomide esters as potent anticancer pro-drugs for topical and transdermal applications in treatments of cancers” (Tianjin North Pharm Sci-Tech Co., Ltd., priority 2004, dated 2007).

In data set [1] the test system is MCF-7 (human breast). The data set is described as follows: In vitro tumour cell growth inhibition (MTT), MCF-7. In kind it is cell-based. Particulars: MCF7, Table 1 experiment, 96 h. On the procedure:
(§1) Temozolomide (white powder), temozolomide acid (white powder) and temozolomide-8-carboxylate hexyl (white scale crystal) were made in house. For the estimation of in vitro tumour cell growth inhibition, MV3 (human melanoma), M14 (human melanoma), B16 and B16-BL6 (mouse melanoma), SHG-44, TJ899 and TJ905 (human glioma), MCF-7 (human breast), HCT-8 (human colon), A549 (human non small lung), Bel7402 (human hepatocellulor), and BGC-823 (human stomach) were used. All tumour cells were cultured in RPMI-1640 medium supplemented with 10% fetal bovine serum (FBS) at 37° C. in a humidified 5% CO2 incubator.
(§2) After being harvested from culture flasks, a cell suspension of 1×10^4/ml was made by using 1640 RPMI medium supplemented with 10% fetal bovine serum. 100 μl (contains 1000 tumour cells) of the cell suspension was seeded per well of 96-well flat-bottom Costar culture plates at 37° C. in a humidified 5% CO2 incubator for 24 hrs before introducing drugs. Each tested compounds was made for five different concentrations and 100 μl of the each concentration was introduced into parallel three wells; control wells were added with 100 μl of plain medium alone; fluorouracil (a chemotherapeutic antitumour drug) was used as the positive control. Cells were then incubated for 96 h. Proliferative response and cell death were determined using MTT (3-(4,5-dimethylthiazolyl)-2,5-diphenyl-tetrazolium bromide) assay.
(§3) MTT assay: Following incubation of cells with the tested compounds for 96 h, 100 μl of 0.4 mg/ml MTT in RPMI 1640 was added to each well and the plate was incubated at 37° C. for 4 h. The plate was then centrifuged and followed by removal of medium. 150 μl of DMSO was then added to dissolve formazan crystal. DMSO-added plates were placed on a plate shaker for 5 min and absorbance was measured spectrophotometrically at 540 nm (with reference wavelength at 450 nm) using a Benchmark microtiter plate reader (Bio-Rad 550, Bio-Rad Laboratories, CA, U.S.A.).
(§4) The IC50 was calculated from the curve of the tested compound concentrations against the inhibition rate of the tumour cells. […]

For data set [2], the system named is B16 (mouse melanoma). The data set is described as follows: In vitro tumour cell growth inhibition (MTT), B16. The class given is cell-based. Particulars: Mus musculus, Table 2 experiment, 96 h. On the procedure: as §1, §2, §3
(§5) The IC50 was calculated from the curve of the tested compound concentrations against the inhibition rate of the tumour cells. Table 1 summarized the experiment results by using six human cancer cell lines, HCT-8 (colon carcinoma), A549 (non small lung carcinoma), MCF-7 (breast), Bel7402 (hepatocellulor carcinoma), BGC-823 (stomach adenocarcinoma), and MV3 (melanoma). Table 2 summarized the results from the experiment results by using two human melanoma cell lines, MV3 and M14, two mouse melanoma cell lines, B16 and B16-BL6, and three human glioma cell lines, TJ899, SHG-44 and TJ905.

In data set [3] the test system is TJ905 (human glioma). Description: In vitro tumour cell growth inhibition (MTT), TJ905. The class given is cell-based. Particulars: Homo sapiens, Table 2 experiment, 96 h. On the procedure: as §1, §2, §3, §5
Data set [4] is described as follows: In vitro permeation, Franz diffusion cell, silicone membrane. In kind it is in vitro ADME. The following applies: 37° C., 8 h, FIGS. 3-5. From the text: (§6) Jacketed Franz-type diffusion cells were used throughout the study and the barrier (12) (skin or silicone membrane) was mounted between the two chambers (14, 16) (2.8–3.4 cm^2 available surface area) with the dermal side in contact with the receiver solution (FIG. 2). The diffusion chambers (10) comprised a barrier of skin or silicone membrane (12) mounted between two chambers (14, 16). A cap (18) formed the donor compartment (14). The second receptor compartment (16) contained a receptor cell (20) with a stirring bar (22), sampling port (24) and cover (26). The stirring bar (22) was stirred by means of a magnet plate (28) having a rotating magnet. The receptor compartment comprised a water jacket (30) having a water inlet (32) and a water outlet (34).
Three types of materials were used in permeation studies. • 1. Silicone membrane (Silastic Medical Grade, 500-5, Dow Corning 0.005 in thick) was cut into circular sections (2 cm diameter) and washed with double distilled water prior to use. • 2. Full-thickness rat skin was obtained from Male Wistar rats aged 10 to 12 weeks and weighing 250 to 300 g, which were sacrificed by cervical dislocation, the abdomen shaved and the intact skin removed by dissection. Following removal of fat tissue, the skin was cut into circular pieces and used immediately. • 3. Samples of adult human epidermis were purchased from the Stephen Kirby Skin Bank (UK). The samples were from the leg, were stored at −18° C. and used within one week. Experiments
The membrane (as detailed above) was mounted on the diffusion cell (10), on which the surface area available for diffusion of each cell was about 2.8–3.4 cm^2. The cell cap (18) was placed on the membrane (12), and it was sealed with Parafilm® connecting the cell cap, membrane, and receptor cell. The capacity of each receptor cell was around 25–26 ml, which was filled with receptor solution and was completely in contact with the membrane sheet. During the course of experiment, the solution was continuously stirred by teflon-coated magnetic bar (22) placed in the cell (20). The temperature was maintained at 37° C. by a thermostatic water pump that circulated the water through the jacket (30) surrounding the cell body. The system was allowed to equilibrate under these conditions for half an hour. Finally, the prepared sample solution (2 ml) was added into the donor cap cell, and it was sealed with Parafilm® to minimize the evaporation of donor solution. 1 ml of receptor solution was removed every 30 minutes for 5 hours and then every 60 minutes for a further 3 hours. The volumes withdrawn were always replaced with equal volumes of fresh receptor solution to maintain constant volume. The concentration of each sample solution was determined by using HPLC.
For every sample, six determinations were performed on human and rat skin, and three determinations were carried out through artificial silicone membrane.
As stated above, after the removal of receptor solution, the receiver compartment was refilled with an identical volume of receptor fluid. This causes of the dilution of receptor solution leading to an under determination of the sample concentration. As a consequence, it was necessary to mathematically correct each successive sample concentrations, in the present invention, which was determined by applying the following equation:
[formula] where Ct is the actual current concentration of drug in the receptor phase at time t, Cmt is the apparent (i.e. measured) current concentration of drug in the receptor phase, Vs is the sample volume withdrawn for analysis, Vr is the volume of receptor solution, and ΣCm is the summed total of the previous measured concentrations.
Finally, the amount of drug penetrating the skin per unit area was calculated by dividing the obtained concentrations by the surface area available for diffusion cell and this value was different for each individual cell. […]

The nature of data set [5]: In vitro permeation and metabolism, Franz diffusion cell, full-thickness rat skin. The class given is in vitro ADME. Particulars: 37° C., 8 h, FIGS. 6-8.
From the text: as §6
Three types of materials were used in permeation studies. • 1. […]
The membrane (as detailed above) was mounted on the diffusion cell (10), on which the surface area available for diffusion of each cell was about 2.8–3.4 cm^2. […] The concentration of each sample solution was determined by using HPLC. […]
As stated above, after the removal of receptor solution, the receiver compartment was refilled with an identical volume of receptor fluid. […] As a consequence, it was necessary to mathematically correct each successive sample concentrations, in the present invention, which was determined by applying the following equation: […]

The subject of data set [6] is SHG-44 (human glioma). The data set is described as follows: In vitro tumour cell growth inhibition (MTT), SHG-44. The class given is cell-based. Particulars: Homo sapiens, SHG-44, Table 2 experiment, 96 h. On the procedure: as §1, §2, §3, §5
Data set [7] deals with A549 (human non small lung). The data set is described as follows: In vitro tumour cell growth inhibition (MTT), A549. In kind it is cell-based. Particulars: Table 1 experiment, 96 h. On the procedure: as §1, §2, §3, §4
The test system of data set [8] is TJ899 (human glioma). The data set is described as follows: In vitro tumour cell growth inhibition (MTT), TJ899. In kind it is cell-based. The following applies: Homo sapiens, Table 2 experiment, 96 h. On the procedure:
as §1, §2, §3, §5

For data set [9], the system named is HCT-8 (human colon). The data set is described as follows: In vitro tumour cell growth inhibition (MTT), HCT-8. In kind it is cell-based. Particulars: Table 1 experiment, 96 h. On the procedure:
as §1, §2, §3, §4

The test system of data set [10] is M14 (human melanoma). The data set is described as follows: In vitro tumour cell growth inhibition (MTT), M14. Particulars: Homo sapiens, Table 2 experiment, 96 h. In kind it is cell-based. On the procedure:
as §1, §2, §3, §5

SMILES strings stand for the structures. Converted amounts (≈) assume the structure as drawn.

On to `CCCCCCOC(=O)c1ncn2c(=O)n(C)nnc12` [temozolomide hexyl ester, Hexyl 3,4-dihydro-3-methyl-4-oxoimidazo[5,1-d]-1,2,3,5-tetrazine-8-carboxylate], for which the IC50 is 20 µg/mL (≈ 71.6 µM) in data set [1]; 28.3 µg/mL (≈ 101 µM) in data set [2]; greater than 100 µg/mL in data set [3]; 9.46 µg/mL (≈ 33.9 µM) in data set [6]; 26.6 µg/mL (≈ 95.4 µM) in data set [7]; greater than 100 µg/mL in data set [8]. Moreover, the IC50 in [9] was 28.6 µg/mL (≈ 103 µM); in data set [10] it was greater than 100 µg/mL. Moreover, in data set [4], the “Permeation through synthetic silicone membrane” value is “passed through the membrane far more efficiently”. In addition, the “Permeation through full-thickness rat skin (cumulative amount permeated %)” value in data set [5] was “maximum value”.
